Read-outs that look alike come from different tables or passages of the source.
Columns and labels:
[1] = In vitro injection of substrate and sodium permanganate solutions into a beaker, reaction temperature by thermocouple; format: physicochemical; settings: for Average maximum temperature increase (° C.) Permanganate first / Average peak temperature (° C.) Permanganate first / Average maximum temperature increase (° C.) Simultaneous / Average peak temperature (° C.) Simultaneous / Average maximum temperature increase (° C.) Substrate first / Average peak temperature (° C.) Substrate first: substrate 1M/1 mL; for average maximum temperature: simultaneous injections, substrate 180 g/L, permanganate (1M, 1 mL)
Description: In vitro studies: All reagents were obtained from Sigma-Aldrich Chemical Co. (St. Louis, Mo.) unless otherwise noted. […] Exemplary reaction products of glycerol oxidation by permanganate include tartronic acid and glyceric acid (FIG. 8). Reaction temperature was measured by a thermocouple probe (type T MT-29/1; Physitemp Instruments, Clifton, N.J.) placed at the center of the beaker, with the tip submerged underneath the surface of the mixed solutions. Temperature recordings were made by a T-type thermocouple thermometer (Digi-Sense; Cole-Parmer, Vernon Hills, Ill.) at time intervals of 1 to 3 seconds from the onset of injections until the temperature dropped below 40° C. A series of different permanganate volumes (1, 2, and 3 mL) and concentrations (1 and 2M) were tested in order to study the effects of volume and concentration on temperature. Selected experiments were repeated with glucose, sucrose, maltodextrin (4-7 glucose unit average), and dextrin as substrates. The remaining substrates were different polysaccharides (starch, cellulose and glycogen) and polyvinyl alcohol. See, FIG. 9. All were used as 180 g/L (carbohydrates based on glucose) solutions and/or suspensions rather than expressing concentration in molarity due to their polymeric nature.

MCF-7 cells = experiment: DNA fragmentation assay, MCF-7; format: cell-based, human
Description: (§1) Cell lysates were incubated at 37° C. for 3 hours, and the samples were centrifuged at 13,000 rpm for 30 minutes. Supernatants containing DNA were extracted with phenol-chloroform and precipitated with ethanol. Equal amounts of DNA were resolved on a 2% agarose gel containing ethidium bromide, and bands corresponding to nucleosomes were visualized under ultra violet light.

HuH-7 cells [2] = tested on: HuH-7 cells
143B cells = experiment: DNA fragmentation assay, 143B; format: cell-based, human
Description: as §1

HepG2 cells = settings: Castañeda and Kinne 2000; cited from earlier work
[3] = tested on: osteosarcoma cell line 143B; format: cell-based
[4] = tested on: breast cancer cell line MCF-7; experiment: MTT cell viability assay, MCF-7
Description: Cells were plated in 96-well plates for the MTT assays at a concentration of 3×10^5 cells per well overnight prior to performing the assays.
Cell viability assay: Cell viability assays were performed using as a substrate the MTT reagent 3-(4,5-Dimethylthiazol-2-yl)-2,5-diphenyltetrazolium bromide (Sigma-Aldrich, St. Louis, Mo.) at a concentration of 10 μg/100 μl. Growth medium was aspirated from the wells and cells were washed twice with 1×PBS. […] One hundred μl of MTT substrate was added to each well in a 96-well plate and plates were incubated for 1 hour at 37° C. Cells were then gently washed in 1×PBS and 100 μl stop solution (acidified phenol) was added to each well. Plates were incubated again at 37° C. for 30 minutes and the colorimetric changes in the cells were measured using a plate reader at 570 nm. Only the live viable cells are able to convert yellow colored MTT reagent into purple colored formazan.

HuH-7 cells [5] = experiment: DNA fragmentation assay, HuH-7; format: cell-based, human; settings: 1 M urea for 2 hours
Description: as §1

[6] = NaMnO4 (1M/1 mL), permanganate first
[7] = NaMnO4 (1M/1 mL), simultaneous injection
[8] = NaMnO4 (1M/1 mL), substrate first
[9] = NaMnO4 (1M/2 mL), permanganate first
[10] = NaMnO4 (1M/2 mL), simultaneous injection
[11] = NaMnO4 (1M/2 mL), substrate first
[12] = NaMnO4 (1M/3 mL), permanganate first
[13] = NaMnO4 (1M/3 mL), simultaneous injection
[14] = NaMnO4 (1M/3 mL), substrate first
[15] = NaMnO4 (2M/1 mL), permanganate first
[16] = NaMnO4 (2M/1 mL), simultaneous injection
[17] = NaMnO4 (2M/1 mL), substrate first
[18] = 3% ethanol, exposure for 2 hours

Row | Molecule | Average maximum temperature increase (° C.) Permanganate first [1, 6] [°C] | Average peak temperature (° C.) Permanganate first [1, 6] [°C] | Average maximum temperature increase (° C.) Simultaneous [1, 7] [°C] | Average peak temperature (° C.) Simultaneous [1, 7] [°C] | Average maximum temperature increase (° C.) Substrate first [1, 8] [°C] | Average peak temperature (° C.) Substrate first [1, 8] [°C] | Average maximum temperature increase (° C.) Permanganate first [1, 9] [°C] | Average peak temperature (° C.) Permanganate first [1, 9] [°C] | Average maximum temperature increase (° C.) Simultaneous [1, 10] [°C] | Average peak temperature (° C.) Simultaneous [1, 10] [°C] | Average maximum temperature increase (° C.) Substrate first [1, 11] [°C] | Average peak temperature (° C.) Substrate first [1, 11] [°C] | Average maximum temperature increase (° C.) Permanganate first [1, 12] [°C] | Average peak temperature (° C.) Permanganate first [1, 12] [°C] | Average maximum temperature increase (° C.) Simultaneous [1, 13] [°C] | Average peak temperature (° C.) Simultaneous [1, 13] [°C] | Average maximum temperature increase (° C.) Substrate first [1, 14] [°C] | Average peak temperature (° C.) Substrate first [1, 14] [°C] | Average maximum temperature increase (° C.) Permanganate first [1, 15] [°C] | Average peak temperature (° C.) Permanganate first [1, 15] [°C] | further results
1 | OCC(O)CO [Glycerol, glycerol] | 37.6 | 59.3 | 41.4 | 63.9 | 48.4 | 71.1 | 48.5 | 70.3 | 66.3 | 89.1 | 64.4 | 86.7 | 55.3 | 77.9 | 66.6 | 90.6 | 67.5 | 90.3 | 75.4 | 97.0 | Average maximum temperature increase (° C.) Simultaneous [1, 16]: 74.5 °C; Average peak temperature (° C.) Simultaneous [1, 16]: 97.4 °C; Average maximum temperature increase (° C.) Substrate first [1, 17]: 76.9 °C; Average peak temperature (° C.) Substrate first [1, 17]: 99.1 °C; average maximum temperature, permanganate first ([1]; volume of substrate (1M) raised to 2 mL, permanganate 1M, permanganate first): 54.1 °C; average maximum temperature, simultaneous ([1]; volume of substrate (1M) raised to 2 mL, permanganate 1M, simultaneous injection): 53.1 °C; average maximum temperature, substrate first ([1]; volume of substrate (1M) raised to 2 mL, permanganate 1M, substrate first): 56.7 °C
2 | OC[C@H]1O[C@@](CO)(O[C@H]2O[C@H](CO)[C@@H](O)[C@H](O)[C@H]2O)[C@@H](O)[C@@H]1O [Sucrose, sucrose] | 24.9 | 46.4 | 33.5 | 56.8 | 37.1 | 58.9 | 42.1 | 64.9 | 51.0 | 73.6 | 60.0 | 82.1 | 51.5 | 74.6 | 66.9 | 90.1 | 63.0 | 85.1 | 76.7 | 100.0 | average maximum temperature, permanganate-first ([1]; concentration of the sucrose solution (1 mL) raised to 2M, permanganate-first): 100.0 °C; average maximum temperature, simultaneous ([1]; concentration of the sucrose solution (1 mL) raised to 2M, simultaneous injection): 100.2 °C; average maximum temperature, sucrose-first ([1]; concentration of the sucrose solution (1 mL) raised to 2M, sucrose-first): 99.8 °C; Average maximum temperature increase (° C.) Simultaneous [1, 16]: 77.0 °C; Average peak temperature (° C.) Simultaneous [1, 16]: 100.2 °C; Average maximum temperature increase (° C.) Substrate first [1, 17]: 77.7 °C; Average peak temperature (° C.) Substrate first [1, 17]: 99.8 °C; average temperature increase, permanganate-first ([1]; volume of sucrose solution increased to 2 mL, permanganate-first): 44.6 °C; average temperature increase, simultaneous ([1]; volume of sucrose solution increased to 2 mL, simultaneous injection): 45.9 °C; average temperature increase, sucrose-first ([1]; volume of sucrose solution increased to 2 mL, sucrose-first): 51.0 °C
3 | CCO [ethanol] |  |  |  |  |  |  |  |  |  |  |  |  |  |  |  |  |  |  |  |  | apoptosis by DNA laddering (MCF-7 cells; 10% ethanol for 6 hours): A similar result; cell death (HuH-7 cells [2]; 2% ethanol, 6 hours of exposure): 50%; cytotoxicity (HuH-7 cells [2]; 4% ethanol, 2 hours): lethal; cytotoxicity (HuH-7 cells [2]; ethanol 3% (v/v)): toxic; cytotoxicity (HuH-7 cells [2]; ethanol 5% (v/v)): toxic; apoptosis by DNA laddering (143B cells; 10% ethanol for 6 hours): A similar result; apoptosis (HepG2 cells): induces apoptosis; cells died ([3]; 1% ethanol, 24 hour exposure): > 90%; cell death [3, 18]: > 90%; cells died ([4]; 1% ethanol, 24 hour exposure): > 90%; cell death [4, 18]: > 90%
4 | NC(N)=O [urea] |  |  |  |  |  |  |  |  |  |  |  |  |  |  |  |  |  |  |  |  | apoptosis by DNA laddering (MCF-7 cells; 1 M urea for 2 hours): induced apoptosis; cells survived (HuH-7 cells [2]; 250 mM urea, 24 hours): 50%; cells survived (HuH-7 cells [2]; 750 mM urea, 6 hour exposure): about 50%; apoptosis by DNA laddering (143B cells; 1 M urea for 2 hours): induced apoptosis; apoptosis by DNA laddering (HuH-7 cells [5]): induced apoptosis
5 | dextrin |  |  |  |  |  |  |  |  |  |  |  |  |  |  |  |  |  |  |  |  | average maximum temperature [1]: 51.1 °C
6 | maltodextrin |  |  |  |  |  |  |  |  |  |  |  |  |  |  |  |  |  |  |  |  | average maximum temperature [1]: 42.5 °C
